Measured values as given in US20240368174A1, “Antiviral Heterocyclic Compounds” (Enanta Pharmaceuticals, Inc., priority 2023, published 2024).

What was measured:
[1] = system: HMPV clinical isolate A2 strain TN 94-49; experiment: HMPV antiviral assay, Method 2 (LLC-MK2 cells with CP-100-356, ATP-Lite); assay type: cell-based; conditions: human metapneumovirus; hMPV A2 TN/94-49, LLC-MK2 cells with CP-100-356, Method 2
How it was run: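 LLC-MK2 rhesus kidney cells (5,000/well) infected in suspension with HMPV A2 TN 94-49 at MOI 0.16, in serum-free medium with final 2 μg/mL TPCK-trypsin and 2 μM CP-100-356. Compounds tested in duplicate from 200 nM, 2.5-fold, 10 points; 7 days at 37 °C. Cell health by ATP-Lite luminescence; EC50 by four-parameter fit.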

[2] = system: HMPV clinical isolate A2 strain TN 94-49; experiment: HMPV antiviral assay, Method 1 (LLC-MK2 cells, ATP-Lite); assay type: cell-based; conditions: human metapneumovirus, hMPV A2 TN/94-49, LLC-MK2 cells
How it was run: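 LLC-MK2 cells (5,000/well) infected in suspension with HMPV A2 TN 94-49 at MOI 0.005 in serum-free OptiMEM with 2 μg/mL final TPCK-trypsin, compounds in duplicate from 2 μM top, 2.5-fold, 10 points. After 7 days at 37° C, cell health by ATP-Lite luminescence normalised to virus and cell controls; EC50 from four-parameter fit.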

SMILES	EC50 [1] [nM]	EC50 [2] [nM]
COc1cc(C(=O)NC[C@](O)(c2cc3c(c(-c4ccc(F)c(Cl)c4Cl)n2)OC[C@]3(C)C(N)=O)C(F)(F)F)cc2cn(C3CC3)nc12 [Example 65]	< 200	< 500
COc1cc(C(=O)NC[C@](O)(c2cc3c(c(-c4ccc(F)c(Cl)c4Cl)n2)OC[C@]3(C)C(N)=O)C(F)(F)F)cc2cn(C(F)F)nc12 [Example 66]	< 200	< 500
COc1cc(C(=O)NC[C@](O)(c2cc3c(c(-c4ccc(F)c(C)c4Cl)n2)OC[C@]3(C)C(N)=O)C2CC2)cc2cn(C3CC3)nc12 [Example 69]	< 200	< 500
COc1cc(C(=O)NC[C@](O)(c2cc3c(c(-c4ccc(F)c(F)c4C)n2)OC[C@]3(C)C(N)=O)C2CC2)cc2cn(C3CC3)nc12 [Example 70]	< 200	< 500
CCc1cc(-c2nc([C@@](O)(CNC(=O)c3cc(OC)c4nn(C5CC5)cc4c3)C3CC3)cc3c2OC[C@]3(C)C(N)=O)ccc1F [Example 71]	> 200	> 500
COc1cc(C(=O)NC[C@](O)(c2cc3c(c(-c4cc(Cl)c(F)cc4F)n2)OC[C@]3(C)C(N)=O)C2CC2)cn2cc(C3CC3)nc12 [Example 77]	< 200	< 500
COc1cc(C(=O)NC[C@@](O)(c2ccccc2)c2cc3c(c(-c4cc(Cl)c(F)cc4F)n2)OC[C@]3(C)C(N)=O)cc2oc(C3CC3)nc12 [Example 85]	< 200	< 500
C[C@]1(C(N)=O)COc2c1cc([C@@](O)(CNC(=O)c1ccc3nc(C4CC4)oc3c1)c1ccccc1)nc2-c1cc(Cl)c(F)cc1F [Example 88]	< 200	< 500
COc1cc(C(=O)NC[C@@](O)(c2ccccc2)c2cc3c(c(-c4cc(Cl)c(F)cc4F)n2)OC[C@]3(C)C(N)=O)cc2cc(C)nnc12 [Example 89]	< 200	< 500
COc1cc(C(=O)NC[C@@](O)(c2ccccc2)c2cc3c(c(-c4cc(Cl)c(F)cc4F)n2)OC[C@]3(C)C(N)=O)cc2cc(C3CC3)nnc12 [Example 90]	< 200	< 500
COc1cc(C(=O)NC[C@@](O)(c2ccc(C(F)(F)F)cc2)c2cc3c(c(-c4cc(Cl)c(F)cc4F)n2)OC[C@]3(C)C(N)=O)cc2cn(C3CC3)nc12 [Example 130]	> 200	> 500
COc1cc(C(=O)NC[C@@](O)(c2cccnc2)c2cc3c(c(-c4cc(Cl)c(F)cc4F)n2)OC[C@]3(C)C(N)=O)cc2cn(C3CC3)nc12 [Example 131]	< 200	< 500
COc1cc(C(=O)NC[C@@](O)(c2cccc(F)c2)c2cc3c(c(-c4cc(Cl)c(F)cc4F)n2)OC[C@]3(C)C(N)=O)cc2cn(C3CC3)nc12 [Example 132]	< 200	< 500
COc1cc(C(=O)NC[C@@](O)(c2cccc(F)c2)c2cc3c(c(-c4cc(Cl)c(F)cc4F)n2)OC[C@]3(C)C(N)=O)cc2cc(C3CC3)nn12 [Example 133]	< 200	< 500
[2H]C([2H])([2H])NC(=O)[C@@]1(C)COc2c1cc([C@@](O)(CNC(=O)c1cc(OC)c3nn(C4CC4)cc3c1)c1ccccc1)nc2-c1cc(Cl)c(F)cc1F [Example 140]	< 200	< 500
COc1cc(C(=O)NC[C@@](O)(c2ccccc2)c2cc3c(c(-c4cc(Cl)ccc4F)n2)OC[C@]3(C)C(N)=O)cc2cn(C3CC3)nc12 [Example 144]	< 200	< 500
COc1cc(C(=O)NC[C@@](O)(c2ccccc2)c2cc3c(c(-c4cc(Cl)ccc4F)n2)OC[C@]3(C)C(N)=O)cc2cn(C(F)F)nc12 [Example 145]	< 200	< 500
COc1cc(C(=O)NC[C@@](O)(c2ccccc2)c2cc3c(c(-c4cc(Cl)ccc4F)n2)OC[C@]3(C)C(N)=O)cc2cc(C3CC3)nn12 [Example 146]	< 200	< 500
COc1cc(C(=O)NC[C@@](O)(c2ccccc2)c2cc3c(c(-c4cc(C(F)(F)F)ccc4F)n2)OC[C@]3(C)C(N)=O)cc2cn(C3CC3)nc12 [Example 147]	< 200	< 500
COc1cc(C(=O)NC[C@@](O)(c2ccccc2)c2cc3c(c(-c4cc(Cl)c(F)cc4F)n2)OC[C@]3(C)C(N)=O)cc2sc(N)nc12 [Example 157]	< 200	< 500
COc1cc(C(=O)NC[C@@](O)(c2ccccc2)c2cc3c(c(-c4cc(Cl)c(F)cc4F)n2)OC[C@]3(C)C(N)=O)cc2cn(C3(F)CC3)nc12 [Example 158]	< 200	< 500
COc1cccc([C@](O)(CNC(=O)c2cc(OC)c3nn(C4CC4)cc3c2)c2cc3c(c(-c4cc(Cl)c(F)cc4F)n2)OC[C@]3(C)C(N)=O)c1 [Example 160]	< 200	< 500

SMILES	EC50 [1] [nM]	EC50 [2] [nM]
COc1ccc([C@](O)(CNC(=O)c2cc(OC)c3nn(C4CC4)cc3c2)c2cc3c(c(-c4cc(Cl)c(F)cc4F)n2)OC[C@]3(C)C(N)=O)cc1 [Example 165]	< 200	< 500
COc1ccc([C@](O)(CNC(=O)c2cc(OC)c3nn(C4(F)CC4)cc3c2)c2cc3c(c(-c4cc(Cl)c(F)cc4F)n2)OC[C@]3(C)C(N)=O)cc1 [Example 166]	< 200	< 500
COc1cc(C(=O)NC[C@@](O)(c2ccccc2)c2cc3c(c(-c4cc(F)c(F)cc4F)n2)OC[C@]3(C)C(N)=O)cc2cn(C3(F)CC3)nc12 [Example 170]	< 200	< 500
COc1cc(C(=O)NC[C@@](O)(c2ccccc2)c2cc3c(c(-c4cc(F)c(F)cc4F)n2)OC[C@]3(C)C(N)=O)cc2cn(C3CC3)nc12 [Example 171]	< 200	< 500
COc1cc(C(=O)NC[C@@](O)(c2ccccc2)c2cc3c(c(-c4cc(F)c(F)cc4F)n2)OC[C@]3(C)C(N)=O)cc2cn(C(F)F)nc12 [Example 172]	< 200	< 500
COc1cc(C(=O)NC[C@@](O)(c2ccsc2)c2cc3c(c(-c4cc(F)c(F)cc4F)n2)OC[C@]3(C)C(N)=O)cc2cn(C3(F)CC3)nc12 [Example 179]	< 200	< 500
Cc1cnc2c(OC3CC3)cc(C(=O)NC[C@@](O)(c3ccccc3)c3cc4c(c(-c5cc(Cl)c(F)cc5F)n3)OC[C@]4(C)C(N)=O)cc2c1 [Example 182]	< 200	< 500
Cc1cnc2c(OC(F)F)cc(C(=O)NC[C@@](O)(c3ccccc3)c3cc4c(c(-c5cc(Cl)c(F)cc5F)n3)OC[C@]4(C)C(N)=O)cc2c1 [Example 183]	< 200	< 500
COc1cc(C(=O)NC[C@@](O)(c2ccccc2)c2cc3c(c(-c4cc(Cl)c(F)cc4F)n2)OC[C@]3(C)C(N)=O)cc2cc(Br)cnc12 [Example 185]	< 200	< 500
COc1cc(C(=O)NC[C@@](O)(c2ccccc2)c2cc3c(c(-c4cc(Cl)c(F)cc4F)n2)OC[C@]3(C)C(N)=O)cc2cc(C(F)F)nnc12 [Example 186]	< 200	> 500
COc1cc(C(=O)NC[C@@](O)(c2ccccc2)c2cc3c(c(-c4cc(Cl)c(F)cc4F)n2)OC[C@]3(C)C(N)=O)cc2cc(Cl)cnc12 [Example 187]	< 200	< 500
COc1cc(C(=O)NC[C@@](O)(c2ccccc2)c2cc3c(c(-c4ccc(F)c(F)c4Cl)n2)OC[C@]3(C)C(N)=O)cc2cn(C(F)F)nc12 [Example 213]	< 200	< 500
COc1cc(C(=O)NC[C@@](O)(c2ccccc2)c2cc3c(c(-c4ccc(F)c(Cl)c4Cl)n2)OC[C@]3(C)C(N)=O)cc2cn(C(F)F)nc12 [Example 258]	< 200	< 500
COc1cc(C(=O)NC[C@@](O)(c2ccccc2)c2cc3c(c(-c4ccc(F)c(Cl)c4Cl)n2)OC[C@]3(C)C(N)=O)cc2cn(C3(F)CC3)nc12 [Example 259]	< 200	< 500
COc1cc(C(=O)NC[C@@](O)(c2ccccc2)c2cc3c(c(-c4cccc(Cl)c4Cl)n2)OC[C@]3(C)C(N)=O)cc2cn(C3CC3)nc12 [Example 260]	< 200	< 500
COc1cc(C(=O)NC[C@@](O)(c2ccccc2)c2cc3c(c(-c4cccc(Cl)c4Cl)n2)OC[C@]3(C)C(N)=O)cc2cn(C3(F)CC3)nc12 [Example 262]	< 200	< 500
COc1cc(C(=O)NC[C@@](O)(c2ccc(F)cc2)c2cc3c(c(-c4ccc5c(c4Cl)OC(F)(F)O5)n2)OC[C@]3(C)C(N)=O)cc2cn(C3(F)CC3)nc12 [Example 263]	< 200	< 500
COc1cc(C(=O)NC[C@@](O)(c2ccc(F)cc2)c2cc3c(c(-c4ccc5c(c4Cl)OC(F)(F)O5)n2)OC[C@]3(C)C(N)=O)cc2cn(C(F)F)nc12 [Example 264]	< 200	< 500
C[C@]1(C(N)=O)COc2c1cc([C@@](O)(CNC(=O)c1cc(OC3CC3)c3nn(C(F)F)cc3c1)c1ccc(F)cc1)nc2-c1ccc2c(c1Cl)OC(F)(F)O2 [Example 265]	< 200	< 500
C[C@]1(C(N)=O)COc2c1cc([C@@](O)(CNC(=O)c1cc(OC3CC3)c3nn(C4(F)CC4)cc3c1)c1ccccc1)nc2-c1cccc(Cl)c1Cl [Example 266]	< 200	< 500
COc1cc(C(=O)NC[C@@](O)(c2cccc(F)c2)c2cc3c(c(-c4ccc(F)c(Cl)c4Cl)n2)OC[C@]3(C)C(N)=O)cc2cn(C3(F)CC3)nc12 [Example 269]	< 200	< 500
COc1cc(C(=O)NC[C@@](O)(c2cccc(F)c2)c2cc3c(c(-c4ccc(F)c(Cl)c4Cl)n2)OC[C@]3(C)C(N)=O)cc2cn(C(F)F)nc12 [Example 270]	< 200	< 500
